According to the supplement of paper PMC10307832:

What was measured:
Test in all cases: relative viability (nuclei count vs DMSO), 5 days (fraction); higher = more cells survive
Trametinib + Pemetrexed = compound: CC(=O)Nc1cccc(-n2c(=O)n(C3CC3)c(=O)c3c(Nc4ccc(I)cc4F)n(C)c(=O)c(C)c32)c1 [Trametinib] + Nc1nc2[nH]cc(CCc3ccc(C(=O)N[C@@H](CCC(=O)O)C(=O)O)cc3)c2c(=O)[nH]1 [Pemetrexed] (partner 0.2 µM)
In short: (§1)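 Five library-drug doses in √10 steps were combined with a fixed anchor-drug dose, or a single drug was given alone, by pin tool to lung cancer cell lines in 1536-well plates the day after seeding. Nuclei were stained and counted after 5 days. Relative viability is the nuclei count in treated wells over that in vehicle wells, taken as the median of duplicate plates.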

Trametinib + Navitoclax = compound: CC(=O)Nc1cccc(-n2c(=O)n(C3CC3)c(=O)c3c(Nc4ccc(I)cc4F)n(C)c(=O)c(C)c32)c1 [Trametinib] + CC1(C)CCC(c2ccc(Cl)cc2)=C(CN2CCN(c3ccc(C(=O)NS(=O)(=O)c4ccc(N[C@H](CCN5CCOCC5)CSc5ccccc5)c(S(=O)(=O)C(F)(F)F)c4)cc3)CC2)C1 [Navitoclax] (partner 0.5 µM)
In short: as §1

[1] = compound: CN1C=C(C2=CC=CC=C21)/C=C\3/C4=C(C=CC=N4)NC3=O + O=C(c1cc(Cc2n[nH]c(=O)c3ccccc23)ccc1F)N1CCN(C(=O)C2CC2)CC1 [Olaparib] (partner 8 µM)
In short: as §1

[2] = compound: CN1C=C(C2=CC=CC=C21)/C=C\3/C4=C(C=CC=N4)NC3=O + C[C@@H](Oc1cc(-c2cnn(C3CCNCC3)c2)cnc1N)c1c(Cl)ccc(F)c1Cl [Crizotinib] (partner 1 µM)
In short: as §1

Cell Line	relative viability (Trametinib + Pemetrexed; first compound 0.0025 µM)	relative viability (Trametinib + Pemetrexed; first compound 0.007906 µM)	relative viability (Trametinib + Pemetrexed; first compound 0.025 µM)	relative viability (Trametinib + Pemetrexed; first compound 0.07906 µM)	relative viability (Trametinib + Pemetrexed; first compound 0.25 µM)	relative viability (Trametinib + Navitoclax; first compound 0.0025 µM)	relative viability (Trametinib + Navitoclax; first compound 0.007906 µM)	relative viability (Trametinib + Navitoclax; first compound 0.025 µM)	relative viability (Trametinib + Navitoclax; first compound 0.07906 µM)	relative viability (Trametinib + Navitoclax; first compound 0.25 µM)	relative viability ([1]; first compound 0.02 µM)	relative viability ([1]; first compound 0.06325 µM)	relative viability ([1]; first compound 0.2 µM)	relative viability ([1]; first compound 0.6325 µM)	relative viability ([1]; first compound 2 µM)	relative viability ([2]; first compound 0.02 µM)	relative viability ([2]; first compound 0.06325 µM)	relative viability ([2]; first compound 0.2 µM)	relative viability ([2]; first compound 0.6325 µM)	relative viability ([2]; first compound 2 µM)
COR-L 105	0.984	0.825	0.69	0.488	0.42	0.594	0.517	0.417	0.387	0.324	0.522	0.459	0.478	0.585	0.967	0.655	0.515	0.637	0.849	0.885
LU99A	0.206	0.208	0.203	0.193	0.206	0.855	0.779	0.465	0.363	0.235	0.253	0.24	0.274	0.21	0.278	0.522	0.479	0.607	0.568	0.603
NCI-H596	0.475	0.445	0.477	0.546	0.426	0.893	0.624	0.525	0.498	0.363	0.545	0.744	0.648	0.558	0.554	0.932	1.01	0.936	0.89	0.891
201T	0.394	0.362	0.338	0.341	0.371	1.17	1.1	1.13	1.08	1.09	0.821	0.781	0.868	0.931	0.87	1.01	1.04	1.05	1.12	1.01
HCC-15	0.21	0.221	0.227	0.186	0.221	0.505	0.336	0.243	0.247	0.189	0.716	0.679	0.733	0.713	0.837	0.805	0.795	0.887	0.897	0.955
